Measured values from EP4745137A1 (Gluetacs Therapeutics (Shanghai) Co., Ltd., priority 2023, dated 2025).

What was measured:
[1] = molecular target: T1, WEE1 (Homo sapiens, UniProt P30291+Q96SW2); test: Western-blot assay of substrate protein degradation in hPBMCs, WEE1; type: cell-based; conditions: 24 hours of compound treatment
T1 construct: endogenous in cells; host or cells: hPBMCs (Milecell Biotechnologies)

[2] = molecular target: T2, IKZF1 (Homo sapiens, UniProt Q13422+Q96SW2); test: Western-blot assay of substrate protein degradation in hPBMCs, IKZF1; type: cell-based; conditions: 24 hours of compound treatment
T2 construct: endogenous in cells; host or cells: hPBMCs (Milecell Biotechnologies)

[3] = molecular target: T3, IKZF2 (Homo sapiens, UniProt Q96SW2+Q9UKS7); test: Western-blot assay of substrate protein degradation in hPBMCs, IKZF2; type: cell-based; conditions: 24 hours of compound treatment
T3 construct: endogenous in cells; host or cells: hPBMCs (Milecell Biotechnologies)

[4] = molecular target: T4, IKZF3 (Homo sapiens, UniProt Q96SW2+Q9UKT9); test: Western-blot assay of substrate protein degradation in hPBMCs, IKZF3; type: cell-based; conditions: 24 hours of compound treatment
T4 construct: endogenous in cells; host or cells: hPBMCs (Milecell Biotechnologies)

[5] = molecular target: T5, CK1α (Homo sapiens, UniProt P48729+Q96SW2); test: Western-blot assay of substrate protein degradation in hPBMCs, CK1α; type: cell-based; conditions: 24 hours of compound treatment
T5 construct: endogenous in cells; host or cells: hPBMCs (Milecell Biotechnologies)

[6] = molecular target: T6, GSPT1 (Homo sapiens, UniProt P15170+Q96SW2); test: Western-blot assay of substrate protein degradation in hPBMCs, GSPT1; type: cell-based; conditions: 24 hours of compound treatment
T6 construct: endogenous in cells; host or cells: hPBMCs (Milecell Biotechnologies)

[7] = molecular target: T7, human Cereblon WT GST-tagged protein (Homo sapiens, UniProt Q96SW2); test: CRBN-binding affinity by HTRF (CEREBLON BINDING kit); conditions: HTRF inhibitory activity, CEREBLON BINDING kit; read-out: HTRF IC50
T7 construct: purchased CISBIO 64BDCRBNPEH
Description: The CEREBLON BINDING kits (specification: 10,000 tests; product number: Catalog # 64BDCRBNPEH; CISBIO company) was used to determine the CRBN binding ability of the compounds to be tested through a HTRF method (homogeneous time-resolved fluorescence). The specific methods are as follows: • 1. […] Specifically, diluent #9 (1X) solution was used as the diluent, and multiple concentration gradients were set. […] Then, 2.5 µL of human Cereblon WT GST-tagged protein solution was added to each well. Finally, 5 µL of the thoroughly mixed Thalidomide-Re reagent and GST Eu antibody working solution were added to each of the aforementioned wells. […] The blank control wells were sequentially added with 2.5 µL of diluent #9 (1X) solution, 2.5 µL of binding buffer, and 5 µL of thoroughly mixed Thalidomide-Re reagent and GST Eu antibody working solution. • 4.

[8] = compounds tested at 50 nM and 500 nM (concentration of the table not stated)
[9] = 50 nM and 500 nM tested (concentration behind the class not stated)

T7 sequence (Q96SW2 whole entry): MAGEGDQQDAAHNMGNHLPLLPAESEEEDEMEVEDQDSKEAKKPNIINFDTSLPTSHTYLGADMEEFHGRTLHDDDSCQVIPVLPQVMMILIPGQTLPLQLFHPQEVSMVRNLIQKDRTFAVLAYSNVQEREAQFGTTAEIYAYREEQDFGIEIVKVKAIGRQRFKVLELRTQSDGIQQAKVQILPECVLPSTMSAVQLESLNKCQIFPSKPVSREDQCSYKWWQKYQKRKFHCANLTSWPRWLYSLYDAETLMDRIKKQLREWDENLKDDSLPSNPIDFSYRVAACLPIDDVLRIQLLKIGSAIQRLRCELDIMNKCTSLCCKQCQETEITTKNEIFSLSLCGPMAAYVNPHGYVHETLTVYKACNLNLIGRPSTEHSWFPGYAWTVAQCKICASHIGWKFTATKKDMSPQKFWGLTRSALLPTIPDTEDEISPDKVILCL
T4 sequence (Q9UKT9 whole entry): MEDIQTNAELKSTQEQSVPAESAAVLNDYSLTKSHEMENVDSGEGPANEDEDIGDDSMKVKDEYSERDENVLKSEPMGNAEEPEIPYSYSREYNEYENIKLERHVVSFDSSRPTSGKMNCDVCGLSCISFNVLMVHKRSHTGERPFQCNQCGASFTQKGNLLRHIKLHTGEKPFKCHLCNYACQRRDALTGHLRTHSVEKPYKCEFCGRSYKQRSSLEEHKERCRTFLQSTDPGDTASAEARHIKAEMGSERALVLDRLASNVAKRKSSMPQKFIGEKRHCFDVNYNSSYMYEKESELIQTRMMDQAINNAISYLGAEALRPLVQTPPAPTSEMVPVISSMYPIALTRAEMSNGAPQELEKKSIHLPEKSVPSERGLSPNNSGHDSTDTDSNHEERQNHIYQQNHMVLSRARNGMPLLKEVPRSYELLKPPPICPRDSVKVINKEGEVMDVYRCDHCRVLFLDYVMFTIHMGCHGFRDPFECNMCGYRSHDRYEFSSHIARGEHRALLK
T4 sequence (Q96SW2 whole entry): as the sequence (Q96SW2 whole entry) above
T4 sequence (Q16531 whole entry partner): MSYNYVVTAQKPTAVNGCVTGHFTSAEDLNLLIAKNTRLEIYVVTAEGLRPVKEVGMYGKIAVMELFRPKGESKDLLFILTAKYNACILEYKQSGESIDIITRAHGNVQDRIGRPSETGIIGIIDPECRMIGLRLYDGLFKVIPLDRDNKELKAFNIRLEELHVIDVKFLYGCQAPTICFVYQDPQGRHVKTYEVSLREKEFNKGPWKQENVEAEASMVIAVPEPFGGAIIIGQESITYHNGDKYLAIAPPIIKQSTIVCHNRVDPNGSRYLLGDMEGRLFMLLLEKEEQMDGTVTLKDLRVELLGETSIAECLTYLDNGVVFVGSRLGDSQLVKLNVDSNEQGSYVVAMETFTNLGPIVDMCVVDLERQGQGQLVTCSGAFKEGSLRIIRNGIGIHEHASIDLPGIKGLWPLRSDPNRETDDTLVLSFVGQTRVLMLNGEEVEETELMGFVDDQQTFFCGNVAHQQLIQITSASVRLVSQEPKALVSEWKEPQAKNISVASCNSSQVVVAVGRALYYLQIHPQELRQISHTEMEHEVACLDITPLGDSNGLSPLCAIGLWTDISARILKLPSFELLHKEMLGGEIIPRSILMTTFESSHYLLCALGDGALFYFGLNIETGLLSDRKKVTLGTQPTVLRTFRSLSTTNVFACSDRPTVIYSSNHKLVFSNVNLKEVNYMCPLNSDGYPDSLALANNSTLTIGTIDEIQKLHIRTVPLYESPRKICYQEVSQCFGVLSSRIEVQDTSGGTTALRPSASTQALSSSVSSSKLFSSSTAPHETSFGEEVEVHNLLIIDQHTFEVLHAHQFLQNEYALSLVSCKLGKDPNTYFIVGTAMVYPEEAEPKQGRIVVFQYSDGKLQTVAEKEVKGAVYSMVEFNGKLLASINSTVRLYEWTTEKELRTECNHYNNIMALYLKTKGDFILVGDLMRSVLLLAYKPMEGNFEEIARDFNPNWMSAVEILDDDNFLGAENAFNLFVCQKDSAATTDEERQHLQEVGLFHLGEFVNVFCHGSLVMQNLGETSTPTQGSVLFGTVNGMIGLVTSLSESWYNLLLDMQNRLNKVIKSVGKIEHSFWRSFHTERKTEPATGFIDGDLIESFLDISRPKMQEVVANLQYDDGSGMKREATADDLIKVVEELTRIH
T1 sequence (P30291 whole entry): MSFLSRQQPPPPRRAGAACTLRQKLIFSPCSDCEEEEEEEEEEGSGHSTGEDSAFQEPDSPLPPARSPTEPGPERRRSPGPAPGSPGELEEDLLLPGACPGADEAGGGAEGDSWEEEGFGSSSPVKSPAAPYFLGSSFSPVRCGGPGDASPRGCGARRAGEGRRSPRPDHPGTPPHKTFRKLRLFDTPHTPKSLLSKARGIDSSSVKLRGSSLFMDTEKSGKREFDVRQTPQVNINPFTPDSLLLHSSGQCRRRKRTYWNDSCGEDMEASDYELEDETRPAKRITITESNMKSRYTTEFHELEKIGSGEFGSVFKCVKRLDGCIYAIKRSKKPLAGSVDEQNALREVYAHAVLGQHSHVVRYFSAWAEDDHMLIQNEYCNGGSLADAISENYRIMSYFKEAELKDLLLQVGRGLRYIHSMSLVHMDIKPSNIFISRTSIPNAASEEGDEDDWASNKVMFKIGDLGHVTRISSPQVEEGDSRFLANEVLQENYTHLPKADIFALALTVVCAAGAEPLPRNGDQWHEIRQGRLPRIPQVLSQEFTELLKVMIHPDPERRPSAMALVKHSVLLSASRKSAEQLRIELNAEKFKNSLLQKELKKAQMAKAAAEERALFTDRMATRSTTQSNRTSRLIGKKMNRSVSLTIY
T1 sequence (Q96SW2 whole entry): as the sequence (Q96SW2 whole entry) above
T1 sequence (Q16531 whole entry partner): as the sequence (Q16531 whole entry partner) above
T5 sequence (P48729 whole entry): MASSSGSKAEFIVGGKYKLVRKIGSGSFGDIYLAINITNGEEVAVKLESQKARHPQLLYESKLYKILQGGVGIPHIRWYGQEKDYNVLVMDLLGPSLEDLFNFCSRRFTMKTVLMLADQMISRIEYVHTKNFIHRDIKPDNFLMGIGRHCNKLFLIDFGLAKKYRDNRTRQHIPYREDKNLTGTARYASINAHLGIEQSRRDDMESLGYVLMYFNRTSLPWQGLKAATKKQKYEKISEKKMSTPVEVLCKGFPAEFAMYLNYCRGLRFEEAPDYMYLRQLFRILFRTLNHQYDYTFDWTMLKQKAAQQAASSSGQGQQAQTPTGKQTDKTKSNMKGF
T5 sequence (Q96SW2 whole entry): as the sequence (Q96SW2 whole entry) above
T5 sequence (Q16531 whole entry partner): as the sequence (Q16531 whole entry partner) above
T3 sequence (Q9UKS7 whole entry): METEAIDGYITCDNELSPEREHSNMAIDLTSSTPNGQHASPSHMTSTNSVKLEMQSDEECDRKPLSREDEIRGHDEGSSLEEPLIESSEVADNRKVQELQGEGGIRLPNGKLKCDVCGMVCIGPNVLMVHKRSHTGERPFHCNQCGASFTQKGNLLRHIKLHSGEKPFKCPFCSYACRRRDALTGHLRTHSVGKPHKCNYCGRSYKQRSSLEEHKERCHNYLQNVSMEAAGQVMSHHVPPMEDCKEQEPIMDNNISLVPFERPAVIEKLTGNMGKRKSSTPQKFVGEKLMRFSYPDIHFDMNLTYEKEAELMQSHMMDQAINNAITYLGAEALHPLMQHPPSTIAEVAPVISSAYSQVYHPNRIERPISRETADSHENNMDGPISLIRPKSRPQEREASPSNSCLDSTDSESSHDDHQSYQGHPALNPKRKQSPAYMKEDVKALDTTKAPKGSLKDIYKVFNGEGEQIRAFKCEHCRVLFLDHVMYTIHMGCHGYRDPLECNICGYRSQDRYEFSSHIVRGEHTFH
T3 sequence (Q96SW2 whole entry): as the sequence (Q96SW2 whole entry) above
T3 sequence (Q16531 whole entry partner): as the sequence (Q16531 whole entry partner) above
T2 sequence (Q13422 whole entry): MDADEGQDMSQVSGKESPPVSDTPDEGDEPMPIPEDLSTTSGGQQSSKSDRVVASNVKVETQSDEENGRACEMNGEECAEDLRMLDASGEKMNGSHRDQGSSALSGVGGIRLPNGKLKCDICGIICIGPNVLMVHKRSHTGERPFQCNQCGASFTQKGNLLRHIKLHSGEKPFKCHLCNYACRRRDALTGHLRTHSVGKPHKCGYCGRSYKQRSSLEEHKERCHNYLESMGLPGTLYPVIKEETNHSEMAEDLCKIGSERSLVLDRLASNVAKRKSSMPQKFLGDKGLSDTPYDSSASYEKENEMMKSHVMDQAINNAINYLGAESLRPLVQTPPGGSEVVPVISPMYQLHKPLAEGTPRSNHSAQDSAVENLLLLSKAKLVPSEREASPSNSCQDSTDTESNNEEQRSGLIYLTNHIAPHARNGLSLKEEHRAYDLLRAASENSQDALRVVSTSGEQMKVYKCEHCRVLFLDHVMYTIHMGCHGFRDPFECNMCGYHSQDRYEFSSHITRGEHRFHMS
T2 sequence (Q96SW2 whole entry): as the sequence (Q96SW2 whole entry) above
T2 sequence (Q16531 whole entry partner): as the sequence (Q16531 whole entry partner) above

## O=C1CCC(N2Cc3cc(CN4CCN(c5nsc6cc(F)ccc56)CC4)ccc3C2=O)C(=O)N1 (stereo not drawn) [GT-05332, 3-(5-((4-(6-fluorobenzo[d]isothiazol-3-yl)piperazin-1-yl)methyl)-1-oxoisoindolin-2-yl)piperidine-2,6-dione]
[1]; [8]
  Weel substrate protein remaining %: B (80%< substrate protein remaining %≤ 100%)
[2]; [8]
  IKZF 1 substrate protein remaining %: B (80%< substrate protein remaining %≤ 100%)
[3]; [8]
  IKZF2 substrate protein remaining %: A (0% ≤ substrate protein remaining % ≤ 80%)
[4]; [8]
  IKZF3 substrate protein remaining %: B (80%< substrate protein remaining %≤ 100%)
[5]; [8]
  CK1a substrate protein remaining %: B (80%< substrate protein remaining %≤ 100%)
[6]; [8]
  GSPT1 substrate protein remaining %: B (80%< substrate protein remaining %≤ 100%)
[7]
  IC50: < 500 nM

## O=C1CCC(N2Cc3cc(CN4CCN(c5c(Cl)cccc5Cl)CC4)ccc3C2=O)C(=O)N1 (stereo not drawn) [GT-04613, 3-(5-((4-(2,6-dichlorophenyl)piperazin-1-yl)methyl)-1-oxoisoindolin-2-yl)piperidine-2,6-dione]
[1]; [8]
  Weel substrate protein remaining %: A (0% ≤ substrate protein remaining % ≤ 80%)
[2]; [8]
  IKZF 1 substrate protein remaining %: B (80%< substrate protein remaining %≤ 100%)
[3]; [8]
  IKZF2 substrate protein remaining %: B (80%< substrate protein remaining %≤ 100%)
[4]; [8]
  IKZF3 substrate protein remaining %: B (80%< substrate protein remaining %≤ 100%)
[5]; [8]
  CK1a substrate protein remaining %: B (80%< substrate protein remaining %≤ 100%)
[6]; [8]
  GSPT1 substrate protein remaining %: A (0% ≤ substrate protein remaining % ≤ 80%)
[7]
  IC50: 1000 to 1500 nM

## O=C1CCC(N2Cc3cc(CN4CCN(c5ncnc6sccc56)CC4)ccc3C2=O)C(=O)N1 (stereo not drawn) [GT-04678, 3-(1-oxo-5-((4-(thieno[2,3-d]pyrimidin-4-yl)piperazin-1-yl)methyl)isoindolin-2-yl)piperidine-2,6-dione]
[1]; [8]
  Weel substrate protein remaining %: A (0% ≤ substrate protein remaining % ≤ 80%)
[2]; [8]
  IKZF 1 substrate protein remaining %: A (0% ≤ substrate protein remaining % ≤ 80%)
[3]; [8]
  IKZF2 substrate protein remaining %: A (0% ≤ substrate protein remaining % ≤ 80%)
[4]; [8]
  IKZF3 substrate protein remaining %: A (0% ≤ substrate protein remaining % ≤ 80%)
[5]; [8]
  CK1a substrate protein remaining %: B (80%< substrate protein remaining %≤ 100%)
[6]; [8]
  GSPT1 substrate protein remaining %: A (0% ≤ substrate protein remaining % ≤ 80%)
[7]
  IC50: 500 to 1000 nM

## O=C1CCC(N2Cc3cc(CN4CCN(c5ccnc(Cl)c5F)CC4)ccc3C2=O)C(=O)N1 (stereo not drawn) [GT-04612, 3-(5-((4-(2-chloro-3-fluoropyridin-4-yl)piperazin-1-yl)methyl)-1-oxoisoindolin-2-yl)piperidine-2,6-dione]
[1]; [8]
  Weel substrate protein remaining %: A (0% ≤ substrate protein remaining % ≤ 80%)
[2]; [8]
  IKZF 1 substrate protein remaining %: B (80%< substrate protein remaining %≤ 100%)
[3]; [8]
  IKZF2 substrate protein remaining %: B (80%< substrate protein remaining %≤ 100%)
[4]; [8]
  IKZF3 substrate protein remaining %: B (80%< substrate protein remaining %≤ 100%)
[5]; [8]
  CK1a substrate protein remaining %: B (80%< substrate protein remaining %≤ 100%)
[6]; [8]
  GSPT1 substrate protein remaining %: A (0% ≤ substrate protein remaining % ≤ 80%)
[7]
  IC50: 500 to 1000 nM

## O=C1CCC(N2Cc3cc(CN4CCN(c5ccc(Cl)nc5)CC4)ccc3C2=O)C(=O)N1 (stereo not drawn) [GT-04537, 3-(5-((4-(6-chloropyridin-3-yl)piperazin-1-yl)methyl)-1-oxoisoindolin-2-yl)piperidine-2,6-dione]
[1]; [8]
  Weel substrate protein remaining %: A (0% ≤ substrate protein remaining % ≤ 80%)
[2]; [8]
  IKZF 1 substrate protein remaining %: A (0% ≤ substrate protein remaining % ≤ 80%)
[3]; [8]
  IKZF2 substrate protein remaining %: A (0% ≤ substrate protein remaining % ≤ 80%)
[4]; [8]
  IKZF3 substrate protein remaining %: A (0% ≤ substrate protein remaining % ≤ 80%)
[5]; [8]
  CK1a substrate protein remaining %: A (0% ≤ substrate protein remaining % ≤ 80%)
[6]; [8]
  GSPT1 substrate protein remaining %: A (0% ≤ substrate protein remaining % ≤ 80%)
[7]
  IC50: 500 to 1000 nM

## O=C1CCC(N2Cc3cc(CN4CCN(c5cccnc5)CC4)ccc3C2=O)C(=O)N1 (stereo not drawn) [GT-04508, 3-(1-oxo-5-((4-(pyridin-3-yl)piperazin-1-yl)methyl)isoindolin-2-yl)piperidine-2,6-dione]
[1]; [8]
  Weel substrate protein remaining %: A (0% ≤ substrate protein remaining % ≤ 80%)
[2]; [8]
  IKZF 1 substrate protein remaining %: A (0% ≤ substrate protein remaining % ≤ 80%)
[3]; [8]
  IKZF2 substrate protein remaining %: A (0% ≤ substrate protein remaining % ≤ 80%)
[4]; [8]
  IKZF3 substrate protein remaining %: A (0% ≤ substrate protein remaining % ≤ 80%)
[5]; [8]
  CK1a substrate protein remaining %: B (80%< substrate protein remaining %≤ 100%)
[6]; [8]
  GSPT1 substrate protein remaining %: A (0% ≤ substrate protein remaining % ≤ 80%)
[7]
  IC50: 500 to 1000 nM

## Cc1nc(C2=CCN(Cc3ccc4c(c3)C(=O)N(C3CCC(=O)NC3=O)C4=O)CC2)c2c(-c3ccccc3)csc2n1 (stereo not drawn) [GT-06677, 2-(2,6-dioxopiperidin-3-yl)-5-((4-(2-methyl-5-phenylthieno[2,3-d]pyrimidin-4-yl)-3,6-dihydropyridin-1(2H)-yl)methyl)isoindoline-1,3-dione]
[1]; [9]
  Weel substrate protein remaining %: B (80%< substrate protein remaining %≤ 100%)
[2]; [9]
  IKZF 1 substrate protein remaining %: B (80%< substrate protein remaining %≤ 100%)
[3]; [9]
  IKZF2 substrate protein remaining %: B (80%< substrate protein remaining %≤ 100%)
[4]; [9]
  IKZF3 substrate protein remaining %: B (80%< substrate protein remaining %≤ 100%)
[5]; [9]
  CK1a substrate protein remaining %: A (0% ≤ substrate protein remaining % ≤ 80%)
[6]; [9]
  GSPT1 substrate protein remaining %: B (80%< substrate protein remaining %≤ 100%)
[7]
  IC50: 500 to 1000 nM

## O=C1CCC(N2Cc3cc(CN4CCN(c5ncc6ccsc6n5)CC4)ccc3C2=O)C(=O)N1 (stereo not drawn) [GT-04725, 3-(1-oxo-5-((4-(thieno[2,3-d]pyrimidin-2-yl)piperazin-1-yl)methyl)isoindolin-2-yl)piperidine-2,6-dione]
[1]; [8]
  Weel substrate protein remaining %: B (80%< substrate protein remaining %≤ 100%)
[2]; [8]
  IKZF 1 substrate protein remaining %: B (80%< substrate protein remaining %≤ 100%)
[3]; [8]
  IKZF2 substrate protein remaining %: B (80%< substrate protein remaining %≤ 100%)
[4]; [8]
  IKZF3 substrate protein remaining %: B (80%< substrate protein remaining %≤ 100%)
[5]; [8]
  CK1a substrate protein remaining %: B (80%< substrate protein remaining %≤ 100%)
[6]; [8]
  GSPT1 substrate protein remaining %: A (0% ≤ substrate protein remaining % ≤ 80%)
[7]
  IC50: < 500 nM

## O=C1CCC(N2Cc3c(CN4CCN(c5cccc(Cl)c5Cl)CC4)cccc3C2=O)C(=O)N1 (stereo not drawn) [GT-04528, 3-(4-((4-(2,3-dichlorophenyl)piperazin-1-yl)methyl)-1-oxoisoindolin-2-yl)piperidine-2,6-dione]
[1]; [8]
  Weel substrate protein remaining %: A (0% ≤ substrate protein remaining % ≤ 80%)
[2]; [8]
  IKZF 1 substrate protein remaining %: B (80%< substrate protein remaining %≤ 100%)
[3]; [8]
  IKZF2 substrate protein remaining %: B (80%< substrate protein remaining %≤ 100%)
[4]; [8]
  IKZF3 substrate protein remaining %: B (80%< substrate protein remaining %≤ 100%)
[5]; [8]
  CK1a substrate protein remaining %: B (80%< substrate protein remaining %≤ 100%)
[6]; [8]
  GSPT1 substrate protein remaining %: B (80%< substrate protein remaining %≤ 100%)
[7]
  IC50: 500 to 1000 nM
